Data reported in patent US20210309669A1, “Heterocyclic Spiro Compounds As MAGL Inhibitors” (Pfizer Inc., priority 2018, published 2021).
Where two headings read alike, the source gives them in different places.

How the values were obtained:
[1] = target: T1, human recombinant Monoacylglycerol Lipase (Homo sapiens, UniProt Q99685); assay: MAGL inhibition enzymatic assay (7-HCA fluorogenic substrate); assay type: biochemical; conditions: geometric mean
T1 sequence (Q99685 1-303): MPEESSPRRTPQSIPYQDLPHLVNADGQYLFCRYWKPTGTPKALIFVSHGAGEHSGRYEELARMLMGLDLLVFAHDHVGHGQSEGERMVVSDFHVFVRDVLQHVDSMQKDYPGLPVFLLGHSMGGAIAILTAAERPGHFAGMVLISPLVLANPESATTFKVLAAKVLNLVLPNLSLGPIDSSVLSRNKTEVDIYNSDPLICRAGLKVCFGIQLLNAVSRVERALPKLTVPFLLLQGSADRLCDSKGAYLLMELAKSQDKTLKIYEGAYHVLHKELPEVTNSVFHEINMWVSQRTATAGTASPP
Protocol: (§1) Assessment of MAGL inhibition utilizes human recombinant Monoacylglycerol Lipase and the fluorogenic substrate 7-hydroxycoumarinyl arachidonate (7-HCA, Biomol ST-502). 400 nL of a test compound at decreasing concentration (ranging from 150 μM down to 1.5 nM) was spotted into a 384-well back plate (PerkinElmer, 6007279) using a Labcyte Echo, followed by addition of 10 μL of MAGL enzyme in assay buffer (50 mM HEPES, pH 7.4, 100 mM NaCl, 5 mM MgCl2, 0.1% Triton X-100 and 25% glycerin). An equal volume of 7-HCA in assay buffer with 10% DMSO was added either immediately (T=0 min) or after a 30 minute incubation (T=30 min) to initiate the reaction. The final concentration of MAGL enzyme was […] and 7-HCA substrate was 5 μM. After these dilutions, the final concentration of the test compound ranged from 3 μM to 0.03 nM. The reaction was allowed to progress for 60 minutes, after which the plate was read at an Ex/Em of 340/465. Percent inhibitions were calculated based on control wells containing no compound (0% inhibition) and a control compound (e.g., a MAGL inhibitor whose activity is known or was previously reported in the literature, such as one with about 100% inhibition). IC50 values were generated based on a four parameter fit model using ABASE software from IDBS. See e.g., Wang, Y. et al., “A Fluorescence-Based Assay for Monoacylglycerol Lipase Compatible with Inhibitor Screening,” Assay and Drug Development Technologies, 2008, Vol. 6 (3) pp 387-393 (reporting an assay for measuring MAGL activity).

[2] = target: T1, human recombinant Monoacylglycerol Lipase; assay: MAGL inactivation (enzyme progress curves, kinact/KI); assay type: biochemical; conditions: geometric mean
Protocol: as §1
To measure MAGL inactivation, the same protocol for the (T=0 min) MAGL inhibition IC50 assay was performed with data collected every minute to acquire enzyme progress curves at decreasing concentrations of compound.

[3] = In vitro intrinsic clearance in human liver microsomes (HLM); assay type: in vitro ADME; conditions: pH 7.4, 1 μM substrate, NADPH, 37° C., read-out: HLM CLint, app
Protocol: Test Compounds (Example 1-3 and Comparative-Compounds 1-4) were prepared as solutions in DMSO. The final concentration of DMSO in the incubation was <0.1% (v/v). […] (all final concentrations) in a 384-well plate. The reaction mixture was pre-warmed at 37° C. for 10 min prior to initiation of the incubation. The incubation was quenched with acetonitrile containing internal standards at the following time points: 1, 4, 7, 12, 20, 25, 45, and 60 min (individual incubation plates per time point) with a subsequent addition of water. The samples were vortexed followed by centrifugation and the supernatant was analyzed by LC/MS-MS using multiple reaction monitoring. For control experiments, NADPH was omitted from the incubations.
The microsomal t½ (min) was obtained from a log-linear plot of the substrate depletion versus incubation time and was scaled to hepatic intrinsic clearance (CLint,app (μL/min/mg protein) using the following equation: […]

[4] = In vitro intrinsic clearance in human hepatocytes; assay type: in vitro ADME; conditions: 1 μM substrate, human hepatocytes 0.5 million viable cells per mL, 37° C.
Protocol: Test Compounds (Example 1-3 and Comparative-Compounds 1-4) were prepared as solutions in DMSO at 3 mM which were then diluted in media containing WEM. The final concentration of DMSO in the incubation was 0.03% (v/v). The in vitro half-life (t½) of each compound was determined in incubations containing substrate (1 μM), human hepatocytes (0.5 million viable cells per mL final concentration) in media containing WEM, 50 mM HEPES buffer (pH 7.4), and 26 mM sodium bicarbonate at 37° C. (all final concentrations) in a 96-well plate. The reaction mixture was pre-warmed at 37° C. for 30 min prior to the initiation of the incubation. The incubation was quenched with acetonitrile containing internal standards at the following time points: 0, 5, 15, 30, 60, 120, and 240 min (individual incubation plates per time point). The samples were vortexed followed by centrifugation. An aliquot of supernatant was transferred to a clean 96-well plate and analyzed by LC/MS-MS using multiple reaction monitoring. For control experiments, hepatocytes were omitted from the incubations.
The hepatocyte t½ (min) was obtained from a log-linear plot of the substrate depletion versus incubation time and was scaled to hepatic intrinsic clearance (CLint,app (μL/min/million cells) using the following equation: […]

[5] = 30 minute incubation before substrate, read-out: MAGL (T = 30 min) IC50
[6] = substrate added immediately (T=0 min), read-out: MAGL (T = 0 min) IC50

Row | Compound | IC50 [1, 5] | IC50 [1, 6] | MAGL kinact/KI [2] | microsomal CLint at 1 μM [3] | HHEPs CLint, app [4]
1 | O=C(OC(C(F)(F)F)C(F)(F)F)N1CCC2(CC1)C[C@@H](NS(=O)(=O)CC1CC1)CO2 [Example 1, 1,1,1,3,3,3-Hexafluoropropan-2-yl (3R)-3-{[(cyclopropylmethyl)sulfonyl]amino}-1-oxa-8-azaspiro[4.5]decane-8-carboxylate] | 27.6 nM | 292 nM | 2990 1/s per M | < 8 µL/min/mg | <4.26 μL/min/million
2 | O=C(OC(C(F)(F)F)C(F)(F)F)N1CCC2(CCC(NS(=O)(=O)CC3CC3)CO2)CC1 (stereo not drawn) [Example 3, 1,1,1,3,3,3-Hexafluoropropan-2-yl 3-{[(cyclopropylmethyl)sulfonyl]amino}-1-oxa-9-azaspiro[5.5]undecane-9-carboxylate] | 28.5 nM | 298 nM | 3160 1/s per M | < 8 µL/min/mg | <3.57 μL/min/million
3 | O=C(OC(C(F)(F)F)C(F)(F)F)N1CCC2(CC1)C[C@@H](NS(=O)(=O)C1CC1)CO2 [Example 2, 1,1,1,3,3,3-Hexafluoropropan-2-yl (3R)-3-[(cyclopropylsulfonyl)amino]-1-oxa-8-azaspiro[4.5]decane-8-carboxylate] | 34.7 nM | 369 nM | 2050 1/s per M | < 8 µL/min/mg | 3.46 μL/min/million
